Assay results reported in PubChem BioAssay (NCI).
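How tested: cells in 96-well plates exposed to compound for 48 hours at five concentrations. TGI denotes the concentration required for complete inhibition of growth.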

Tests used:
Experiment in all cases: NCI anticancer screen, dose series, 48 h
[1] = tested on: DLD-1 colon
[2] = tested on: DMS 273 small cell lung
[3] = tested on: HCT-15 colon
[4] = tested on: HOP-92 NSCLC
[5] = tested on: IGROV1 ovarian
[6] = tested on: K-562 leukemia
[7] = tested on: LXFL 529 NSCLC
[8] = tested on: M19-MEL melanoma
[9] = tested on: NCI/ADR-RES ovarian
[10] = tested on: SF-268 CNS
[11] = tested on: SK-MEL-2 melanoma
[12] = tested on: SNB-78 CNS
[13] = tested on: T-47D breast
[14] = tested on: U251 CNS
[15] = tested on: UACC-62 melanoma
[16] = tested on: HOP-18 NSCLC
[17] = tested on: KM20L2 colon

Compound	TGI [1] [µM]	TGI [2] [µM]	TGI [3] [µM]	TGI [4] [µM]	TGI [5] [µM]	TGI [6] [µM]	TGI [7] [µM]	TGI [8] [µM]	TGI [9] [µM]	TGI [10] [µM]	TGI [11] [µM]	TGI [12] [µM]	TGI [13] [µM]	TGI [14] [µM]	TGI [15] [µM]	TGI [16] [µM]	TGI [17] [µM]
COc1ccc(Cc2cc(OC)c(OC)c(OC)c2)cc1	> 100	> 100	> 30.9	85.6	> 100	22	> 100	> 100	> 100	> 100	41.4	> 100	89.8	34.3	> 100	–	–
O=C1C[C@@H]2[C@@H](CCC23CCCC3)N1	> 100	> 100	> 100	–	> 100	> 100	> 100	> 100	–	> 100	> 100	> 100	–	> 100	> 100	> 100	> 100
CC1=NNC(=O)C1C1CC(c2c[nH]c3ccccc23)=NN(c2ccccc2)C1=O (centres undefined)	–	–	> 100	> 100	> 100	> 100	–	–	> 100	> 100	> 100	–	> 100	> 100	> 100	–	–
COc1ccc2nc3cc([N+](=O)[O-])ccc3c(NNc3ccc([N+](=O)[O-])cc3)c2c1	–	–	> 100	67.7	> 59	> 100	–	–	> 100	> 100	> 96.2	–	> 100	> 93.7	> 50.7	–	–
Cc1nn(C(=O)c2ccc(Cl)cc2)c2c1C(c1ccccc1O)SC(N)=N2 (centres undefined)	–	–	> 10	> 10	> 10	> 10	–	–	> 10	> 10	> 10	–	> 10	> 10	> 10	–	–
COc1ccc(OC)c(N=Cc2cc(OC)c(OC)c(OC)c2)c1	–	–	> 100	> 78	> 100	> 100	–	–	> 100	> 100	> 100	–	> 100	> 100	> 100	–	–
CCOC(CN(C)C(=O)Nc1ccc(Cl)c(Cl)c1)OCC	–	–	> 10	> 10	> 10	> 10	–	–	> 10	> 10	> 10	–	> 10	> 10	> 10	–	–
CC(C)(C)C(O)CC(O)(C(F)(F)F)C(F)(F)F (centres undefined)	–	–	> 100	> 100	> 100	> 100	–	–	> 100	> 100	> 100	–	> 100	> 100	> 100	–	–
O=C1C=CC(=O)c2c(O)c(NCCO)c(Cl)c(O)c21	–	–	6.47	> 10	5.63	8.23	–	–	> 10	> 10	> 6.68	–	> 7.77	> 10	3.47	–	–
CC1(C)CCCC2CC2CCC(C)(C)C1=O (centres undefined)	–	–	> 100	> 100	> 100	40.1	–	–	> 100	> 100	> 100	–	> 100	37.3	> 100	–	–
CCCCCCc1cc2cc(C(=O)NCc3ccccc3)c(=N)oc2cc1O	–	–	> 100	> 100	> 100	> 100	–	–	> 100	> 100	> 100	–	> 100	> 100	> 100	–	–
O=C(CCc1ccc(O)c(O)c1)NCCc1ccccc1	–	–	> 100	> 100	> 100	49.6	–	–	> 100	> 100	> 93.7	–	> 100	> 100	> 65.2	–	–
O=C(NC1CCN(Cc2ccccc2)CC1)c1cccc(I)c1	–	–	35.6	62.7	> 100	> 100	–	–	> 100	> 100	38.5	–	61	56.2	40.1	–	–
O=C(/C=C\c1ccsc1)c1ccccc1	–	–	14.6	41.4	22.2	> 70.6	–	–	32.4	21.8	34.4	–	19.7	15.3	24.6	–	–
O=c1sc(Nc2ccc3ccccc3c2Cl)nc2ccccc12	–	–	> 100	> 100	> 100	> 100	–	–	> 100	> 100	> 100	–	> 100	> 100	> 100	–	–
Cc1occc1C(=S)Nc1ccc(Cl)c(C(=O)OCC(C)C)c1	–	–	36.1	34.1	34.5	55.2	–	–	28.6	42.5	40.2	–	34.3	35.9	26.5	–	–
N#CC(c1ccccc1)N(CCc1ccccc1)C(=O)c1ccc(C(=O)N(CCc2ccccc2)C(C#N)c2ccccc2)cc1 (centres undefined)	–	–	37.8	28.1	57	67.4	–	–	47.3	55.2	48.1	–	61.3	64.6	35.6	–	–
Cc1cccc2c(N)c3cccc(C(=O)NCC[N+](C)(C)Cc4ccc(S(C)(=O)=O)cc4)c3nc12	–	–	> 100	> 100	> 100	> 52.2	–	–	> 100	> 100	> 100	–	> 100	> 100	> 100	–	–
CC(=O)c1cc2c(s1)C(=O)c1ccsc1C2=O	–	–	0.367	5.04	3.4	3.57	–	–	2.59	1.01	1.37	–	6.82	0.785	0.688	–	–
